Reference: US20250011881A1, “MYC-HSF1 DUAL AMPLIFICATION AS A BIOMARKER FOR CANCER TREATMENT” (The Trustees of Indiana University, priority 2023, published 2025)
Several values for one entry are separate records, joined by “and”; a condition that tells them apart may be missing. Equal entries are not always repeated. Structures can show the parent of a compound that is named as a salt.

Each molecule was assayed on ovarian cancer cells with (OVCAR8, OVCAR4) or without (OVSAHO, CAOV3) MYC-HSF1 amplification (assay: Epigenetic inhibitor drug screen, cell viability (Cell Titer Blue)). Conditions: not given.
Type: cell-based

Point of comparison: `O=C(Nc1cccc(Nc2nccc(Nc3cccc(C(F)(F)F)c3)n2)c1)C1CC1` [Aurora Kinase Inhibitor III], “Non Amp - AMP (POC) 10 uM” value −0.3226 POC. Against it:
- Cl.Cl.c1cc(-c2cnn3cc(-c4ccc(OCCN5CCCCC5)cc4)cnc23)ccn1 [Dorsomorphin 2HCl] — higher, 15.62 POC
- Cl.Cl.c1ccc([C@@H]2C[C@H]2NC2CCNCC2)cc1 [GSK-LSD1 2HCl] — higher, 2.922 POC
- Sodium Phenylbutyrate — lower, −19.07 POC
- (−)-Epigallocatechin gallate [(−)-Epigallocatechin gallate (EGCG)] — higher, 4.98 POC
- CN(C)CCCn1cc(C2=C(c3c[nH]c4ccccc34)C(=O)NC2=O)c2ccccc21 [GF 109203X] — higher, 3.766 POC

Same assay, conditions: 10 uM, 48 hrs; average relative cell viability (vs 1% DMSO) of non-amplified cells (OVSAHO, CAOV3) minus that of MYC-HSF1 amplified cells (OVCAR8, OVCAR4); positive = greater response in amplified cells

Point of comparison: `CCC(=O)N1CCOc2c(cc(-c3ccc(OC)c(OC)c3)cc2OC[C@H]2CCCN(C)C2)C1` [I-CBP112 (hydrochloride)], “Non Amp - AMP (POC) 10 uM” value 20.48 POC. Against it:
- CCS(=O)(=O)N1CC(CC#N)(n2cc(-c3ncnc4[nH]ccc34)cn2)C1 [Baricitinib (LY3009104, INCB028050), Baricitinib] — lower, −2.641 POC
- Cc1cc(Cl)ccc1OCCCC(=O)NO [Droxinostat] — lower, −21.53 POC
- CCN(CCO)CCCOc1ccc2c(Nc3cc(CC(=O)Nc4cccc(F)c4)[nH]n3)ncnc2c1 [Barasertib (AZD1152-HQPA), Barasertib] — lower, −16.49 POC
- O=C(O)[C@]1(Cc2cccc(Nc3nccs3)n2)CC[C@@H](Oc2cccc(Cl)c2F)CC1 [MK-5108 (VX-689)] — lower, 0.08992 POC
- COc1cc(C(=O)N2CC[C@@H](O)[C@@H](N)C2)cc2nc(-c3cc4ccccc4n3CC3CC3)n(C)c12.Cl [GSK484 (hydrochloride)] — lower, 0.3153 POC
- NC(=O)c1ccc(I)c([N+](=O)[O-])c1 [Iniparib (BSI-201), Iniparib] — lower, −7.53 POC
- O=c1c(-n2ccnn2)c[nH]n1-c1cc(N2CCOCC2)ncn1 [Molidustat (BAY85-3934), Molidustat] — lower, −4.287 POC
- Cn1c2ccccc2c2c3c(c4c5ccccc5n(CCC#N)c4c21)CNC3=O [Go 6976] — lower, 5.045 POC
- C[C@@H]1CC(=O)Nc2cccc(-c3ccc4c(c3)c(-c3cnn(C)c3)nn4C)c2N1 [CPI-637] — lower, −2.546 POC
- O=C(NCc1ccncc1)C12CC3CC(C1)CC(c1ccc(Cl)cc1)(C3)C2 [ABC294640] — lower, 4.657 POC
- CN[C@@H]1C[C@H]2O[C@@](C)([C@@H]1OC)n1c3ccccc3c3c4c(c5c6ccccc6n2c5c31)C(=O)NC4 [Staurosporine] — lower, 7.23 POC
- CNCCN1CCC(OCc2ccccc2)CC1.Cl.Cl [MS049 (hydrochloride)] — lower, −3.654 POC
- O=C(O)CNC(=O)c1c(O)c2ccccc2n(Cc2ccccc2)c1=O [IOX2(Glycine)] — lower, 10.17 POC
- O=C(NO)c1ccc(CC(=O)N(CCO)c2ccccc2)cc1 [HPOB] — lower, 18.14 POC
- CC(C)c1ccc(-c2cc(=O)c3ccccc3o2)cc1 [MN 64] — lower, −7.835 POC
- O=C(Nc1ccc(-c2ccnc(Nc3ccc(N4CCOCC4)cc3)n2)cc1)C1CCCN1 (centres unmarked) [XL019] — lower, −14.18 POC
- N#Cc1c(-c2ccccc2)cc(-c2cc(Br)ccc2O)[nH]c1=O [TCS PIM-1 1] — lower, 0.7424 POC
- CC(C)c1cc(CNc2nc(Nc3cc(C4CC4)[nH]n3)cc(N3CCN(C)CC3)n2)on1 [XL228] — lower, 17.3 POC
- COc1cc2ncnc(Nc3ccc(O)c(Br)c3)c2cc1OC [WHI-P154] — lower, −1.78 POC
- COc1cc2c(NC3CCN(CC4CCCCC4)CC3)nc(N3CCCN(C(C)C)CC3)nc2cc1OCCCN1CCCCC1 [UNC 0631] — higher, 34.73 POC
- COc1ccc(C2(CNC(=O)c3ccc(NC(=O)c4ccco4)cc3)CCOCC2)cc1 [JW 55] — lower, −6.598 POC
- Cc1cc(Nc2nc(N[C@@H](C)c3ncc(F)cn3)ncc2Cl)[nH]n1 [AZD1480] — lower, 0.4361 POC
- O=C(Nn1nnc2ccccc21)c1ccc(Cl)cc1Cl [ITSA-1 (ITSA1)] — lower, 7.283 POC
- N#Cc1ccc(COc2ccc(-c3cccc4nc(NC(=O)C5CC5)nn34)cc2)cn1 [GLPG0634 analogue] — lower, −7.702 POC
- C1=C/COCc2cc(ccc2OCCN2CCCC2)Nc2nccc(n2)-c2cccc(c2)COC/1 [Pacritinib (SB1518), Pacritinib] — lower, −2.391 POC
- COC1CCN(C(=O)c2cc(Cc3n[nH]c(=O)c4ccccc34)ccc2F)CC1 [AZD2461] — lower, 9.593 POC
- Cn1ncnc1[C@H]1c2n[nH]c(=O)c3cc(F)cc(c23)N[C@@H]1c1ccc(F)cc1 [BMN 673] — lower, −11.28 POC
- Cc1nc(C(=O)NCC(=O)O)c(O)c2ccc(Oc3ccccc3)cc12 [FG-4592 (ASP1517)] — lower, −0.1816 POC
- COc1cc(-c2cn(C)c(=O)c3cnccc23)cc(OC)c1CN(C)C [BI-7273] — lower, −8.336 POC
- Cc1cnc(Nc2ccc(N3CCN(C)CC3)cc2)nc1Nc1cccc(S(=O)(=O)NC(C)(C)C)c1 [TG101209] — lower, 15.1 POC
- O=c1oc2c(O)c(O)cc3c(=O)oc4c(O)c(O)cc1c4c23 [Ellagic acid] — lower, 13.8 POC
- CN1C/C=C/CCOc2cccc(c2)-c2ccnc(n2)Nc2cccc(c2)C1 [SB1317] — lower, 5.059 POC
- O=C(/C=C/c1cccc(S(=O)(=O)Nc2ccccc2)c1)NO [Belinostat (PXD101), Belinostat] — lower, 12.55 POC
- Cc1cc(-c2nc(-c3ccc(OC(F)(F)F)cc3)no2)nn1Cc1ccnc(N2CCN(C3CC3)CC2)c1 [BAY 87-2243] — lower, 11.79 POC
- Clc1cc2c(NC3CCCC3)nnc(-c3ccncc3)c2cc1Cl [A-196] — lower, 2.334 POC
- C[C@H](NC(=O)/C(C#N)=C/c1cccc(Br)n1)c1ccccc1 [WP1066] — lower, 3.079 POC
- COc1ccc(-n2c(SCCCN3C(=O)c4cccc5cccc(c45)C3=O)nnc2-c2ccncc2)cc1 [WIKI4] — lower, 10.07 POC
- N#CCNC(=O)c1ccc(-c2ccnc(Nc3ccc(N4CCOCC4)cc3)n2)cc1 [CYT387] — lower, −4.087 POC
- CCC(C)SSc1ncc[nH]1 (centres unmarked) [PX 12] — lower, −7.518 POC
- COC(=O)c1ccc(N2CCN(C)CC2)c(NC(=O)c2cccc(OC)c2)c1 [WDR5 0103] — lower, 1.921 POC
- CCC(=O)Nc1cccc(Oc2nc(Nc3ccc(N4CCN(C)CC4)cc3OC)ncc2Cl)c1 [WZ4003] — lower, −24.51 POC
- CS(=O)(=O)c1ccc(-c2cnc(NCc3ccco3)n3cnnc23)cc1 [EED226] — higher, 32.64 POC
- CCOC(=O)c1ccc(NC(=O)O[C@H]2[C@H](OC(=O)Nc3ccc4c(c3)OCO4)[C@@H](OC(=O)Nc3ccc4c(c3)OCO4)[C@@H](OC)O[C@@H]2CO)cc1 [BRD 7552] — lower, −0.1565 POC
- O=C1/C(=C/c2ccc(O)c(Br)c2)CCC/C1=C\c1ccc(O)c(Br)c1 [HAT Inhibitor II] — lower, −25.46 POC
- CC(C(=O)Nc1cccc(/N=C/c2c(O)ccc3ccccc23)c1)c1ccccc1 (centres unmarked) [Salermide] — lower, −13.88 POC
- CN(C)CCCCC(=O)Nc1ccc(NC(=S)NC(=O)c2ccc(C(C)(C)C)cc2)cc1 [Tenovin-6] — lower, 0.07933 POC
- O=c1[nH]c(=S)[nH]c(-c2ccccc2)c1Cc1c(O)ccc2ccccc12 [SIRT 1/2 Inhibitor IV] — lower, 18.95 POC

Same assay, conditions: 10 uM, 48 hrs; average relative cell viability (vs 1% DMSO) of non-amplified cells (OVSAHO, CAOV3) minus that of MYC-HSF1 amplified cells (OVCAR8, OVCAR4); positive = greater response in amplified cells; 10 µM

Point of comparison: `Nc1ccccc1NC(=O)CCCCCCC(=O)Nc1ccccc1` [BML-210], “Non Amp - AMP (POC) 10 uM” value 30.7 POC. Against it:
- N[C@@H]1C[C@H]1c1ccccc1 (racemic) [Tranylcypromine (hydrochloride), Tranylcypromine] — lower, 0.7437 POC
- O=C(/C=C/N1C[C@H]2C[C@@H]1CN2c1ccccn1)c1ccccc1O [PFI-3] — lower, 12.92 POC
- Cc1[nH]c2ccccc2c1CCNCc1ccc(/C=C/C(=O)NO)cc1 [Panobinostat] — higher, 41.46 POC
- Nc1ccccc1NC(=O)c1ccc(CNc2nccc(-c3cccnc3)n2)cc1 [Mocetinostat] — higher, 49.31 POC
- COc1ccc2c(c[n+](C)c3c4cc5c(cc4ccc23)OCO5)c1OC [Chelerythrine Chloride] — lower, −21.5 POC
- Nc1nc2nc[nH]c2c(=S)[nH]1 [Thioguanine] — lower, 9.104 POC
- CC(C)Oc1ccc(-c2c[nH]cc2CN(C)CCN)cc1 [MS023] — lower, −0.6323 POC

In the case of `COc1cc(OC)c2c(=O)[nH]c(-c3cc(C)c(OCCO)c(C)c3)nc2c1` [RVX-208], the “Non Amp - AMP (POC) 10 uM” value is reported as 12.33 POC and 7.058 POC.

Same assay, conditions: 10 uM, 48 hrs; average relative cell viability (vs 1% DMSO) of non-amplified cells (OVSAHO, CAOV3) minus that of MYC-HSF1 amplified cells (OVCAR8, OVCAR4); positive = greater response in amplified cells; listed as BML-210(CAY10433), 10 µM

With `Nc1ccccc1NC(=O)CCCCCCC(=O)Nc1ccccc1` [BML-210] the “Non Amp - AMP (POC) 10 uM” value was 14.33 POC.

Same assay, conditions: 10 uM, 48 hrs; average relative cell viability (vs 1% DMSO) of non-amplified cells (OVSAHO, CAOV3) minus that of MYC-HSF1 amplified cells (OVCAR8, OVCAR4); positive = greater response in amplified cells; listed as Mocetinostat (MGCD0103, MG0103), 10 µM

In the case of `Nc1ccccc1NC(=O)c1ccc(CNc2nccc(-c3cccnc3)n2)cc1` [Mocetinostat], the “Non Amp - AMP (POC) 10 uM” value is reported as 36.88 POC.

Same assay, conditions: 10 uM, 48 hrs; average relative cell viability (vs 1% DMSO) of non-amplified cells (OVSAHO, CAOV3) minus that of MYC-HSF1 amplified cells (OVCAR8, OVCAR4); positive = greater response in amplified cells; listed as PFI 3, 10 µM

`O=C(/C=C/N1C[C@H]2C[C@@H]1CN2c1ccccn1)c1ccccc1O` [PFI-3] was tested, and the “Non Amp - AMP (POC) 10 uM” value was 5.077 POC.

Same assay, conditions: 10 uM, 48 hrs; average relative cell viability (vs 1% DMSO) of non-amplified cells (OVSAHO, CAOV3) minus that of MYC-HSF1 amplified cells (OVCAR8, OVCAR4); positive = greater response in amplified cells; listed as Panobinostat (LBH589), 10 µM

`Cc1[nH]c2ccccc2c1CCNCc1ccc(/C=C/C(=O)NO)cc1` [Panobinostat] was tested, and the “Non Amp - AMP (POC) 10 uM” value was 27.26 POC.

Same assay, conditions: 10 uM, 48 hrs; average relative cell viability (vs 1% DMSO) of non-amplified cells (OVSAHO, CAOV3) minus that of MYC-HSF1 amplified cells (OVCAR8, OVCAR4); positive = greater response in amplified cells; listed as Tranylcypromine hydrochloride, 10 µM

`N[C@@H]1C[C@H]1c1ccccc1` (racemic) [Tranylcypromine (hydrochloride), Tranylcypromine] was tested, and the “Non Amp - AMP (POC) 10 uM” value was −0.6348 POC.
